This note sets out measurements from PubChem BioAssay (NCI).

In general, TGI refers to the concentration at which net growth stops.

Test systems include CAKI-1 renal; HL-60(TB) leukemia; HOP-92 NSCLC; MOLT-4 leukemia; OVCAR-3 ovarian; OVCAR-4 ovarian; OVCAR-5 ovarian; T-47D breast; UACC-257 melanoma; UO-31 renal.
Holding throughout (experiment): DTP human tumour cell line panel, 48 h

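Interpolation was linear, between the two tested concentrations surrounding the appropriate level; five concentrations were tested over 48 hours in 96-well plates. TGI is the concentration that stops growth completely.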

As to `COc1cccc2cc(C(N)=O)c(=N)oc12`, the TGI in the experiment with CAKI-1 renal, with HL-60(TB) leukemia, with HOP-92 NSCLC, with MOLT-4 leukemia, in the experiment with OVCAR-3 ovarian and in the experiment with OVCAR-4 ovarian was greater than 100 µM each time. The TGI in the experiment on OVCAR-5 ovarian, with T-47D breast and in the experiment on UACC-257 melanoma was greater than 100 µM in each case.
For the molecule `CC(C)OP(=O)(CN(C)/C(F)=N\C(F)(F)F)OC(C)C`, the TGI in the experiment with CAKI-1 renal, with HL-60(TB) leukemia, with HOP-92 NSCLC, with MOLT-4 leukemia, in the experiment with OVCAR-3 ovarian and in the experiment on OVCAR-5 ovarian was greater than 100 µM throughout. Also, the TGI with T-47D breast, in the experiment on UACC-257 melanoma and in the experiment on UO-31 renal was greater than 100 µM in each case.
Regarding `C1COC(NC(C2CC2)C2CC2)=N1`, the TGI in the experiment on CAKI-1 renal, in the experiment with HL-60(TB) leukemia, in the experiment on HOP-92 NSCLC, in the experiment on MOLT-4 leukemia, in the experiment with OVCAR-3 ovarian and with OVCAR-4 ovarian was greater than 100 µM throughout. Besides, the TGI in the experiment with OVCAR-5 ovarian, in the experiment with T-47D breast, in the experiment on UACC-257 melanoma and with UO-31 renal was greater than 100 µM in each case.
On to `CC(C)C(C/C=C1/CC(CO)(COC(=O)CC(C(C)C)C(C)C)OC1=O)C(C)C` (stereo not drawn), for which the TGI in the experiment on CAKI-1 renal was determined as 16.5 µM; in the experiment with HL-60(TB) leukemia, 11.7 µM; in the experiment on HOP-92 NSCLC it was 18.7 µM; in the experiment with MOLT-4 leukemia, 32.7 µM; with OVCAR-3 ovarian, 26.7 µM; in the experiment with OVCAR-4 ovarian, 31.8 µM. Further, the TGI in the experiment with OVCAR-5 ovarian stood at 22.1 µM; in the experiment on T-47D breast, 22.9 µM; in the experiment with UACC-257 melanoma, 30.3 µM; in the experiment on UO-31 renal it was 19.9 µM.
Turning to `COc1ccc2c3c1OC1C(=O)C=CC4(O)C(C2)NCC[C@@]314` (stereo partly drawn), the TGI came to 8.49 µM in the experiment on CAKI-1 renal; 4.4 µM in the experiment on HL-60(TB) leukemia; 20.5 µM in the experiment with HOP-92 NSCLC; 9.13 µM in the experiment with MOLT-4 leukemia; 3.99 µM in the experiment with OVCAR-3 ovarian; 12.9 µM in the experiment on OVCAR-4 ovarian. In addition, the TGI in the experiment with OVCAR-5 ovarian came to 8.84 µM; in the experiment with T-47D breast, 5.69 µM; in the experiment with UACC-257 melanoma it was 5.3 µM; in the experiment on UO-31 renal, 8.53 µM.
With `O=C1c2ccccc2CC12Cc1cc3c(cc1C2=O)CCC3` (stereo not drawn), the TGI in the experiment with CAKI-1 renal, in the experiment on HL-60(TB) leukemia, with HOP-92 NSCLC, in the experiment with MOLT-4 leukemia, in the experiment on OVCAR-3 ovarian and in the experiment with OVCAR-4 ovarian was greater than 100 µM throughout. The TGI in the experiment on OVCAR-5 ovarian, in the experiment with T-47D breast, in the experiment on UACC-257 melanoma and with UO-31 renal was greater than 100 µM each time.
`CC(=O)O[C@H]1C[C@]2(C)C(CCC3O[C@@]32C)[C@@]2(CC(c3ccoc3)OC2O)[C@@H]1C` (stereo partly drawn): the TGI in the experiment on CAKI-1 renal was greater than 100 µM; in the experiment with HL-60(TB) leukemia it was 52 µM; in the experiment with HOP-92 NSCLC, greater than 100 µM; with MOLT-4 leukemia, 93 µM; with OVCAR-3 ovarian, greater than 100 µM; in the experiment with OVCAR-4 ovarian it was greater than 100 µM. Also, the TGI in the experiment with OVCAR-5 ovarian, in the experiment with T-47D breast, in the experiment on UACC-257 melanoma and in the experiment with UO-31 renal was greater than 100 µM in each case.
As for `CC(C)(C)c1ccc(CN2CCN(C(c3ccccc3)c3ccc(Cl)cc3)CC2)cc1` (stereo not drawn), the concentration for total growth inhibition (TGI) with CAKI-1 renal, in the experiment on HOP-92 NSCLC, with MOLT-4 leukemia, in the experiment with OVCAR-3 ovarian, with OVCAR-4 ovarian and in the experiment on OVCAR-5 ovarian was greater than 100 µM in each case. Also, the TGI is 54.9 µM in the experiment with T-47D breast, greater than 100 µM in the experiment on UACC-257 melanoma and greater than 100 µM with UO-31 renal.
As for `c1ccc(N=C2SC(=NNc3ccccc3)SC2=Nc2ccccc2)cc1`, the TGI in the experiment on CAKI-1 renal, in the experiment on HL-60(TB) leukemia, with HOP-92 NSCLC, in the experiment with MOLT-4 leukemia, with OVCAR-4 ovarian and in the experiment on OVCAR-5 ovarian was greater than 100 µM in each case. In addition, the TGI in the experiment on T-47D breast, with UACC-257 melanoma and in the experiment on UO-31 renal was greater than 100 µM each time.
Turning to `CN1C(c2ccccc2)=CC(=O)C(O)=C(c2ccccc2)S1(=O)=O`, the TGI in the experiment on CAKI-1 renal, with HL-60(TB) leukemia, with HOP-92 NSCLC, with MOLT-4 leukemia, in the experiment with OVCAR-3 ovarian and in the experiment with OVCAR-4 ovarian was greater than 100 µM in each case. Also, the TGI in the experiment on OVCAR-5 ovarian, with T-47D breast, with UACC-257 melanoma and in the experiment with UO-31 renal was greater than 100 µM in each case.
Consider `CCP(=O)(CC)C(Cl)(Cl)C(O)C(C)(C)C` (stereo not drawn), for which the TGI with CAKI-1 renal, with HOP-92 NSCLC, with MOLT-4 leukemia, with OVCAR-3 ovarian, with OVCAR-4 ovarian and with OVCAR-5 ovarian was greater than 100 µM each time. In addition, the TGI with T-47D breast, in the experiment with UACC-257 melanoma and in the experiment on UO-31 renal was greater than 100 µM each time.
For the molecule `CCCNC(=S)N/N=C/c1cccc(C)n1`, the TGI in the experiment on HL-60(TB) leukemia was 50.8 µM; in the experiment with HOP-92 NSCLC, greater than 100 µM; with MOLT-4 leukemia it was 72.3 µM; with OVCAR-4 ovarian, greater than 100 µM; in the experiment with OVCAR-5 ovarian it was greater than 100 µM; in the experiment on T-47D breast, greater than 100 µM. In addition, the TGI with UACC-257 melanoma and with UO-31 renal was greater than 100 µM in each case.
For `O=C(Cn1nc(Br)c(Br)c1Br)c1ccccc1`, the TGI was 96.7 µM in the experiment on CAKI-1 renal; 30.5 µM in the experiment on HL-60(TB) leukemia; 66.8 µM with HOP-92 NSCLC; 12.3 µM with MOLT-4 leukemia; greater than 100 µM in the experiment with OVCAR-3 ovarian; greater than 100 µM in the experiment with OVCAR-4 ovarian. The TGI with OVCAR-5 ovarian was greater than 100 µM; with T-47D breast, 89.1 µM; in the experiment on UACC-257 melanoma, 63.5 µM; in the experiment on UO-31 renal, 57 µM.
